Several values for one entry are separate records, joined by “and”; a condition that tells them apart may be missing. Equal entries are not always repeated. Where two headings read alike, the source gives them in different places.
Columns and labels:
HBL cells [1] = experiment: MTT viability assay; format: cell-based, human; details: 24 h; for cytotoxicity (MTT): 25 or 50 μM
Procedure: (§1) The effect of the inhibitors on cell viability was evaluated by phase contrast microscopy and by means of the 3-(4,5-dimethyl-2-thiazolyl)-2,5-diphenyl-2H-tetrazolium bromide (MTT) assay. HBL cells were treated with the compounds (25 or 50 μM) for 24 h. At the end of the incubation period, phase contrast images were taken and the MTT assay was performed to test the cytotoxicity of each compound.
(§2) Figure 4 Effect of caffeic acid derivatives on the viability of HBL cells. Cells were incubated for 24 h with the inhibitors at 25 or 50 µM. (a) Phase contrast microscopy images. Representative images are shown (n = 8) Bar size: 50 μm. (b) MTT viability assay. Cells were grown in 96-well plates to ~80% confluence in the presence or absence of the indicated compounds. After 24 h, MTT was added (1 mg/mL final concentration) and maintained in the culture media for 4 h. Cells were PBS-washed twice and solubilized in DMSO. Absorbance at 562 nm was measured and represented as a percentage of the control value. The mean ± SEM of 8 independent experiments is shown. **** p < 0.0001.
Cell viability was measured by the MTT assay. HBL cells were seeded into the wells of a 96-wells plate at a density of 10,000 cells in 200 μL cell culture media. The seeded cells were incubated for 18 h at 37 °C, then treated with the compounds (25 or 50 μM) for 24 h or left untreated. At the end of the incubation period, images were taken and the MTT assay was performed to test the cytotoxicity of the different caffeic acid derivatives.

mushroom tyrosinase [2] = system: mushroom tyrosinase; parameters: method as in PMID 31105178; details: cited from earlier work
tyrosinase = experiment: Tyrosinase expression by Western blot (αPEP7), with or without NDP-MSH; format: cell-based, human
Procedure: Control HBL cells or cells grown in the presence of CAME (25 µM) or LCAME (25 or 50 µM) were stimulated for 48 h with a potent analogue of αMSH ([Nle^4,D-Phe^7]-α-MSH (NDP-MSH), 10^−7 M). Use of the 50 μM concentration of CAME was avoided since this concentration was somewhat cytotoxic as shown above. Expression of tyrosinase was then evaluated by Western blot using a specific antibody directed against tyrosinase (αPEP7). […] However, other mechanisms such as interference with activation and/or functional coupling of the melanocortin 1 receptor responsible for αMSH actions cannot be ruled out and a complete study of these possibilities is beyond the scope of this work. Accordingly, interference of LCAME with MITF expression or activity remains speculative at this stage. In any case, this preliminary observation deserves confirmation using cultured normal human melanocytes and further mechanistic analysis, as it may further support the potential use of LCAME as a skin depigmenting agent. Indeed, LCAME may act at two different levels, on one hand by inhibiting preexisting tyrosinase by a competitive mechanism, and on the other hand by interfering with αMSH-dependent induction of tyrosinase expression.
Figure 5 Effect on tyrosinase expression of CAME (25 µM) and LCAME (25 and 50 µM). HBL melanoma cells were incubated with or without the indicated compounds and stimulated with NDP-MSH (10^−7 M). After 48 h of treatment, tyrosinase levels were compared by Western blotting, performed as described in Materials and Methods. […] For each experimental condition, the fold-increase of tyrosinase abundance upon NDP-MSH treatment relative to the corresponding control was determined by densitometric analysis (ImageJ software) and is shown below the figure.
After protein separation by SDS-PAGE, they were transferred from the gel to the membrane and immunochemical detection with anti-PEP7 was performed as previously described. Briefly, the filters were blocked for 1 h in 2% bovine serum albumin in 1% Tween 20 PBS and incubated overnight at 4 °C with primary antibodies (1:4000 dilution). The filters were washed and further incubated with peroxidase-labeled mouse anti-rabbit IgG (1:5000 dilution). Staining and detection were done with ECL Plus Western Blotting Detection System chemiluminescent substrate (Thermo Fisher Scientific, Waltham, MA, USA). Images were acquired in a Fusion Solo.6S system (Vilber-Lourmat, Marne La Vallée, France). Signal intensities were estimated with ImageJ (National Institutes of Health, Bethesda, […], USA) in independent blots, and normalized with the corresponding loading controls (obtained by staining the membranes with an anti-ERK2 antibody).

mushroom tyrosinase [3] = experiment: Mushroom tyrosinase TH activity inhibition (dopachrome formation at 475 nm, L-tyrosine substrate); format: biochemical; details: 10 min pre-incubation, L-tyrosine 1 mM, tyrosinase 20 U/mL, pH 6.8
Procedure: The inhibition properties of LCAME were preliminarily investigated on mushroom tyrosinase by spectrophotometric monitoring of dopachrome formation, a method which is routinely used for evaluation of the activity of potential tyrosinase inhibitors. L-DOPA was used as the substrate to test DO activity while L-tyrosine was used to test TH activity. LCAME was incubated in 50 mM phosphate buffer in the presence of mushroom tyrosinase (20 U/mL) at room temperature. After 10 min, L-DOPA or L-tyrosine (1 mM final concentration) were added and the absorbance at 475 nm was measured at different times over 10 min. For comparative purposes the effects of CAME were evaluated as well. Stock methanolic solutions of LCAME or CAME, ranging in concentration from 0.02 to 20 mM concentration were prepared dissolving a proper amount of the compound of interest in methanol. 100 μL of these solutions were added to 2 mL of 50 mM phosphate buffer at pH 6.8 (final concentrations range: 0.001–1 mM), in the presence or in the absence of 20 U/mL mushroom tyrosinase. […] Spectrophotometric analysis was performed by measuring the absorbance at 475 nm for 10 min at 2 min intervals. […] In separate experiments, the assay was run as above with LCAME or CAME at 100 μM, in the presence or absence of L-DOPA, and after 10 min the mixture was analyzed by HPLC.

mushroom tyrosinase [4] = experiment: Consumption of inhibitor by mushroom tyrosinase (substrate test, HPLC); format: biochemical; details: 100 μM, 10 min
Procedure: Some tyrosinase inhibitors are also substrates of the enzyme and this is a critical issue because their oxidation can lead to the formation of highly reactive, cytotoxic o-quinones. To rule out this possibility, either LCAME or CAME at 100 μM were exposed to mushroom tyrosinase, in the absence of L-DOPA, and after 10 min, the reaction mixtures were analyzed by HPLC. […] HPLC analyses for determination of the consumption of CAME and LCAME in the presence of mushroom tyrosinase were performed on a Agilent 1100 binary pump instrument equipped with a UV-visible detector using an octadecylsilane-coated column, 250 mm × 4.6 mm, 5 μm particle size (Phenomenex Sphereclone ODS, Bologna, Italy) at 0.7 mL/min, using the following gradient: 0.1% formic acid (eluant a)/ methanol (eluant b): 40% b, 0–10 min; from 40 to 80% b, 47.5–52.5 min; from 80 to 40% b, 52.5–57.5 min. Detection wavelength was set at 280 nm. Stock methanolic solutions of LCAME or CAME, ranging in concentration from 0.02 to 20 mM concentration were prepared dissolving a proper amount of the compound of interest in methanol. 100 μL of these solutions were added to 2 mL of 50 mM phosphate buffer at pH 6.8 (final concentrations range: 0.001–1 mM), in the presence or in the absence of 20 U/mL mushroom tyrosinase. After 10 min incubation at room temperature, 20 μL of a 100 mM solution of L-DOPA or L-tyrosine in 0.6 M HCl, were added (final concentration: 1 mM). Spectrophotometric analysis was performed by measuring the absorbance at 475 nm for 10 min at 2 min intervals. In control experiments, the reaction was run in the absence of LCAME. When required, the experiment was performed as above but adding L-DOP A soon after the addition of LCAME ([…]). In separate experiments, the assay was run as above with LCAME or CAME at 100 μM, in the presence or absence of L-DOPA, and after 10 min the mixture was analyzed by HPLC.

mushroom tyrosinase [5] = experiment: Mushroom tyrosinase DO activity inhibition (dopachrome formation at 475 nm, L-DOPA substrate); format: biochemical; details: 10 min pre-incubation, L-DOPA 1 mM, tyrosinase 20 U/mL, pH 6.8
Procedure: The inhibition properties of LCAME were preliminarily investigated on mushroom tyrosinase by spectrophotometric monitoring of dopachrome formation, a method which is routinely used for evaluation of the activity of potential tyrosinase inhibitors. L-DOPA was used as the substrate to test DO activity while L-tyrosine was used to test TH activity. LCAME was incubated in 50 mM phosphate buffer in the presence of mushroom tyrosinase (20 U/mL) at room temperature. After 10 min, L-DOPA or L-tyrosine (1 mM final concentration) were added and the absorbance at 475 nm was measured at different times over 10 min. For comparative purposes the effects of CAME were evaluated as well. Stock methanolic solutions of LCAME or CAME, ranging in concentration from 0.02 to 20 mM concentration were prepared dissolving a proper amount of the compound of interest in methanol. 100 μL of these solutions were added to 2 mL of 50 mM phosphate buffer at pH 6.8 (final concentrations range: 0.001–1 mM), in the presence or in the absence of 20 U/mL mushroom tyrosinase. After 10 min incubation at room temperature, 20 μL of a 100 mM solution of L-DOPA or L-tyrosine in 0.6 M HCl, were added (final concentration: 1 mM). Spectrophotometric analysis was performed by measuring the absorbance at 475 nm for 10 min at 2 min intervals. In control experiments, the reaction was run in the absence of LCAME. When required, the experiment was performed as above but adding L-DOP A soon after the addition of LCAME ([…]). In separate experiments, the assay was run as above with LCAME or CAME at 100 μM, in the presence or absence of L-DOPA, and after 10 min the mixture was analyzed by HPLC.

HBL cells [6] = experiment: Phase contrast microscopy of cell morphology; format: cell-based, human; details: 50 μM, 24 h
Procedure: as §1, §2
Cell viability was measured by the MTT assay. HBL cells were seeded into the wells of a 96-wells plate at a density of 10,000 cells in 200 μL cell culture media. The seeded cells were incubated for 18 h at 37 °C, then treated with the compounds (25 or 50 μM) for 24 h or left untreated. […]

mushroom tyrosinase [7] = target: mushroom tyrosinase; parameters: method as in PMID 31105178; details: mushroom enzyme; read-out: IC50 (TH Activity); cited from earlier work
[8] = target: T1, tyrosinase from HBL human melanoma cells (Homo sapiens, UniProt P14679); experiment: DO activity of human tyrosinase in HBL cell extracts (MBTH assay, 490 nm); format: biochemical; details: HBL cell extracts
T1 construct: endogenous in cells; host or cells: HBL human melanoma cells (detergent-solubilized cell extract)
T1 sequence (P14679 19-529): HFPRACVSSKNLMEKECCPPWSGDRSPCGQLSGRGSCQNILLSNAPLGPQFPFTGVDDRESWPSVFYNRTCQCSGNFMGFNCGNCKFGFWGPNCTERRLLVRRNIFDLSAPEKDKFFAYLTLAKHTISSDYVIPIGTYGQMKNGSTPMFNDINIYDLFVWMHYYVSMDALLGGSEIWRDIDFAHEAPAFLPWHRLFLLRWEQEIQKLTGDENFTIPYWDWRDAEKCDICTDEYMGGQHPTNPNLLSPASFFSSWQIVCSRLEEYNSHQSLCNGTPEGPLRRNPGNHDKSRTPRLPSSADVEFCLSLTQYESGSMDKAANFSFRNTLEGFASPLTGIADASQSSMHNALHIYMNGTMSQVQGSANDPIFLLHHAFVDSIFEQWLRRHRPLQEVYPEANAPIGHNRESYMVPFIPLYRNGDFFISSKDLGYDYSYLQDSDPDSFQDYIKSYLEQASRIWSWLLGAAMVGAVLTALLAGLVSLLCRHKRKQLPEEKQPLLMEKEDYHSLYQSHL
Procedure: In further experiments, the effect of LCAME and LCA was investigated on extracts from HBL human melanoma cells expressing tyrosinase, and the inhibition of DO activity was evaluated. DO activity was determined according to Winder and Harris with some minor modifications: cell extracts were incubated with 3-methyl-2-benzothiazolinone hydrazone (MBTH) and absorbance at 490 nm was measured every 10 min for 1 h.
Cells were solubilized in 1% Igepal, 1% phenylmethylsulfonyl fluoride, 50 mM phosphate buffer (pH 6.8) and centrifuged at 2000 rpm for 5 min.
DO activity determinations were performed according to Winder and Harris with minor modifications. Briefly, cell extracts (usually 50–100 µg protein/assay) were incubated with 5 mM MBTH and 2.5 mM L-DOPA in 50 mM phosphate buffer pH 6.8 in the presence of the indicated concentrations of the compound of choice in a 96-wells plate. DO activity was measured spectrophotometrically in a microplate reader every ten minutes for one hour and was expressed as the slopes calculated with the GraphPad Prism 7 software (Linear Regression, San Diego, CA, USA).
For the analysis of kinetic parameters, the assays were run as above, using different concentrations of L-DOPA (from 0.1 to 2.0 mM) and of the inhibitor (0, 10 and 25 μM) to build the Lineweaver–Burk plot.

human tyrosinase = system: T2, human tyrosinase; experiment: TH activity of human tyrosinase; format: biochemical; details: compared with DO activity
T2 construct: endogenous in cells

mushroom tyrosinase [9] = system: mushroom tyrosinase; parameters: method as in PMID 31105178; details: cited from earlier work; remark: listed apart in the source

O=C(O)/C=C/c1ccc(O)c(O)c1 [CA, caffeic acid]
cytotoxicity (MTT) (HBL cells [1]): not cytotoxic
effect on tyrosinase activity (mushroom tyrosinase [2]; same conditions as LCA): did not show any effect

COC(=O)/C=C/c1ccc(O)c(O)c1 [CAME, caffeic acid methyl ester, reference compound]
cell viability (MTT) (HBL cells [1]; 50 μM): reduced cell viability
NDP-MSH-mediated induction of tyrosinase expression (tyrosinase; 25 µM, NDP-MSH 10^−7 M, 48 h): similarly induced
basal tyrosinase expression (tyrosinase; HBL cells, CAME 25 µM or LCAME 25 or 50 µM, Western blot): No significant changes
IC50 (mushroom tyrosinase [3]): 79 ± 7 µM
consumption of the inhibitor (mushroom tyrosinase [4]; absence of L-DOPA): almost complete
consumption of the inhibitor (mushroom tyrosinase [4]; presence of L-DOPA): extremely low
IC50 (mushroom tyrosinase [5]): 155 ± 7 µM
cell morphology (phase contrast) (HBL cells [6]): became rounded

O=C(O)/C=C/c1ccc(O)c(O)c1SCCC(S)CCCCC(=O)O (stereo not drawn) [LCA, 2-S-lipoylcaffeic acid]
IC50 (mushroom tyrosinase [7]): 2 ± 0.1 µM
cytotoxicity (MTT) (HBL cells [1]): not cytotoxic
IC50 ([8]; DO activity, L-DOPA 2.5 mM, read-out: IC50 (Mean ± SEM)): 76 µM and 76.2 µM
inhibitory effect on DO activity ([8]; fixed concentration of 25 μM): significant inhibitory effect
effect on TH activity of human tyrosinase (human tyrosinase): much smaller
substrate of tyrosinase (mushroom tyrosinase [9]): not to be a substrate of tyrosinase
nature of tyrosinase inhibition (Lineweaver–Burk plots) (mushroom tyrosinase [2]): mixed type mechanism
IC50 (mushroom tyrosinase [2]; mushroom enzyme, read-out: IC50 (DO Activity)): 3.22 ± 0.02 µM
